Data: patent US4395403A, “Polypeptides, processes for their production, pharmaceutical compositions comprising said polypeptides and their use” (Sandoz Ltd., priority 1979, dated 1983)

Assays:
[1] = test system: gastric secretion; test: TEST II: inhibition of pentagastrin-stimulated gastric secretion in pylorus-ligated rats; assay type: in vivo, rat; conditions: i.m., 100 μg/kg pentagastrin s.c., 30 mins
Experimental: Male rats (220-280 g) are kept in the laboratory in individual cages for several days (14 hours light/day) with 48 hours fasting (but free access to water) immediately prior to the experiment. At start of the experiment the pylorus is ligated under ether anaesthesia and 100 μg/kg pentagastrin are injected s.c. to stimulate gastric secretion. The test compounds are injected simultaneously i.m. 30 mins. later the animals are sacrificed, the volume of gastric juice measured and the acid concentration estimated (titration with thymol blue). The acid output is calculated and the percent inhibition estimated in relation to untreated controls.
Polypeptides in accordance with the invention are active in this test when administered at a dosage in the range of from 0.01 to 100 μg/kg i.m.

[2] = test system: GH-secretion (serum GH-level); test: TEST I: depression of serum GH-levels in the rat (GH-secretion inhibition); assay type: in vivo; conditions: male rats under Nembutal narcosis, 15 minutes after administration
Experimental: This test (TEST I) is carried out employing male rats under Nembutal narcosis. The test-substance is administered at varying, logarithmically staggered doses employing at least 4 rats per dose. The rats are decapitated 15 minutes after administration, the blood is collected and the serum GH-level determined by radio-immuno-assay.
Polypeptides in accordance with the invention are active in this test when administered at a dosage in the range of from 0.01 to 100 μg/kg i.v. or i.m.

SMILES | ID50 in TEST II for acid concentration [1] | ID50 in TEST II for gastric juice content [1] | ID50 in TEST I (amount required to effect 50% inhibition of serum GH-level compared with untreated controls) ([2]; i.m.) | ID50 in TEST I (amount required to effect 50% inhibition of serum GH-level compared with untreated controls) ([2]; i.v.)
C[C@@H](O)[C@@H]1NC(=O)[C@H](CCCCN)NC(=O)[C@@H](Cc2c[nH]c3ccccc23)NC(=O)[C@H](Cc2ccccc2)NC(=O)[C@@H](NC(=O)[C@H](N)Cc2ccccc2)CSSC[C@@H](C(=O)N[C@H](CO)[C@@H](C)O)NC1=O [Example 1] | 0.0004 mg/kg | 0.0007 mg/kg | – | –
C[C@H](N)C(=O)NCC(=O)N[C@H]1CSSC[C@@H](C(=O)O)NC(=O)[C@H](CO)NC(=O)[C@H]([C@@H](C)O)NC(=O)[C@H](Cc2ccccc2)NC(=O)[C@H]([C@@H](C)O)NC(=O)[C@H](CCCCN)NC(=O)[C@H](Cc2c[nH]c3ccccc23)NC(=O)[C@H](Cc2ccccc2)NC(=O)[C@H](Cc2ccccc2)NC(=O)[C@H](CC(N)=O)NC(=O)[C@H](CCCCN)NC1=O [somatostatin] | 0.035 mg/kg | 0.055 mg/kg | 0.0056 mg/kg | 0.062 mg/kg
